From patent US20140121272A1, “DEODORIZATION OF PEROXYCARBOXYLIC ACIDS USING CHAOTROPIC AGENTS” (ECOLAB USA INC., priority 2012, published 2014) come the findings set out here.

This data set is described as follows: pH of Oxonia Active after addition of the additive. It is filed as physicochemical. To be noted: for effect of the additive on the product's pH: Oxonia Active; for pH: additive dissolved in Oxonia Active. The procedure:
The ability to remove odor from a concentrated peracetic acid product was evaluated. Oxonia Active is a concentrated peracetic acid product available from Ecolab, Inc. (St. Paul, Minn.). The commercial product has about 6% peracetic acid and 22% hydrogen peroxide.
Urea was dissolved into the Oxonia Active at various molar ratios to the peracetic acid level and the resulting effect on the product's odor was observed.

For the compound `NC(N)=O` [Urea], the “effect of the additive on the product's pH” value is on record as “did not significantly change”. Moreover, the pH (molar POAA/additive 0.5/1) is 1.38. Under “molar POAA/additive 1/0.25”, this compound had a pH of 1.10. Moreover, for the setting “molar POAA/additive 1/0.50”, the pH turned out to be 1.10. Further, the pH (molar POAA/additive 1/1) is 1.16.

In the case of Ammonium carbonate, the “effect of the additive on the product's pH” value was “raised the pH”. This compound also had a pH (molar POAA/additive 0.5/1) of 7.00. The same compound displayed a pH (molar POAA/additive 1/0.50) of 3.64. In addition, where the note is “molar POAA/additive 1/1”, the pH is given as 5.90.
